From US20170190671A1, “BIS(ARYL)CATECHOL DERIVATIVES AS HERBICIDES” (E I DU PONT DE NEMOURS AND COMPANY, priority 2014, published 2017)

Experiments:
Test in all cases: Test E preemergence
Type in all cases: in vivo
Conditions in all cases: scale 0 to 100
[1] = tested on: Brazilian crabgrass (Digitaria horizontalis)
Excerpt: (§1) Seeds of plant species selected from corn (Zea mays), soybean (Glycine max), velvetleaf (Abutilon theophrasti), cocklebur (common cocklebur, Xanthium strumarium), lambsquarters (Chenopodium album), wild poinsettia (Euphorbia heterophylla), palmer pigweed (Amaranthus palmeri), waterhemp (common waterhemp, Amaranthus rudis), surinam grass (Brachiaria decumbens), large (Lg) crabgrass (Digitaria sanguinalis), Brazilian crabgrass (Digitaria horizontalis), fall panicum (Panicum dichotomiflorum), giant foxtail (Setaria faberii), green foxtail (Setaria viridis), goosegrass (Eleusine indica), johnsongrass (Sorghum halepense), ragweed (common ragweed, Ambrosia elatior), barnyardgrass (Echinochloa crus-galli), sandbur (southern sandbur, Cenchrus echinatus), arrowleaf sida (Sida rhombifolia), Italian ryegrass (Lolium multiflorum), dayflower (Virginia (VA) dayflower, Commelina virginica), field bindweed (Convolvulus arvensis), morningglory (Ipomoea coccinea), nightshade (eastern black nightshade, Solanum ptycanthum), kochia (Kochia scoparia), yellow nutsedge (Cyperus esculentus), horseweed (Conyza canadensis), and hairy beggarticks (Bidens pilosa), were planted into a silt loam soil and treated preemergence with test chemicals formulated in a non-phytotoxic solvent mixture which included a surfactant.
(§2) At the same time, plants from these crop and weed species and also waterhemp_RES1, (ALS & Triazine resistant common waterhemp, Amaranthus rudis), and waterhemp_RES2, (ALS & HPPD resistant common waterhemp, Amaranthus rudis) were planted in pots containing Redi-Earth® planting medium (Scotts Company, 14111 Scottslawn Road, Marysville, Ohio 43041) comprising spaghnum peat moss, vermiculite, wetting agent and starter nutrients were treated with postemergence applications of test chemicals formulated in the same manner. Plants ranged in height from 2 to 18 cm for postemergence treatments (1- to 4-leaf stage). Treated plants and controls were maintained in a greenhouse for 14 to 21 days, after which time all species were compared to controls and visually evaluated. Plant response ratings, summarized in Table E, are based on a scale of 0 to 100 where 0 is no effect and 100 is complete control. A dash (-) response means no test result.

[2] = tested on: Italian ryegrass (Lolium multiflorum)
Excerpt: as §1, §2

[3] = tested on: Surinam grass (Brachiaria decumbens)
Excerpt: as §1, §2

[4] = tested on: arrowleaf sida (Sida rhombifolia)
Excerpt: as §1, §2

[5] = tested on: barnyardgrass (Echinochloa crus-galli)
Excerpt: as §1, §2

[6] = tested on: dayflower (Virginia (VA) dayflower, Commelina virginica)
Excerpt: as §1, §2

[7] = tested on: fall panicum (Panicum dichotomiflorum)
Excerpt: as §1, §2

[8] = tested on: field bindweed (Convolvulus arvensis)
Excerpt: as §1, §2

[9] = tested on: goosegrass (Eleusine indica)
Excerpt: as §1, §2

[10] = tested on: green foxtail (Setaria viridis)
Excerpt: as §1, §2

[11] = tested on: hairy beggarticks (Bidens pilosa)
Excerpt: as §1, §2

kochia (Kochia scoparia) = tested on: kochia (Kochia scoparia)
Excerpt: as §1, §2

[12] = tested on: lambsquarters (Chenopodium album)
Excerpt: as §1, §2

[13] = tested on: large (Lg) crabgrass (Digitaria sanguinalis)
Excerpt: as §1, §2

[14] = tested on: morningglory (Ipomoea coccinea)
Excerpt: as §1, §2

[15] = tested on: nightshade (eastern black nightshade, Solanum ptycanthum)
Excerpt: as §1, §2

[16] = tested on: palmer pigweed (Amaranthus palmeri)
Excerpt: as §1, §2

[17] = tested on: ragweed (common ragweed, Ambrosia elatior)
Excerpt: as §1, §2

[18] = tested on: sandbur (southern sandbur, Cenchrus echinatus)
Excerpt: as §1, §2

[19] = tested on: waterhemp (common waterhemp, Amaranthus rudis)
Excerpt: as §1, §2

[20] = tested on: yellow nutsedge (Cyperus esculentus)
Excerpt: as §1, §2

Fc1cccc(Oc2ncc(C(F)(F)F)cn2)c1Oc1ncc(Cl)cn1 [Compound 42, 5-chloro-2-[2-fluoro-6-[[5-(trifluoromethyl)-2-pyrimidinyl]oxy]phenoxy]pyrimidine]
Plant response rating, Crabgrass, Brazil ([1]; 16 g ai/ha): 35
Plant response rating, Crabgrass, Brazil ([1]; 31 g ai/ha): 95
Plant response rating, Crabgrass, Brazil ([1]; 62 g ai/ha): 100
Plant response rating, Crabgrass, Brazil ([1]; 125 g ai/ha): 100
Plant response rating, Ryegrass, Italian ([2]; 16 g ai/ha): 20
Plant response rating, Ryegrass, Italian ([2]; 31 g ai/ha): 40
Plant response rating, Ryegrass, Italian ([2]; 62 g ai/ha): 80
Plant response rating, Ryegrass, Italian ([2]; 125 g ai/ha): 98
Plant response rating, Surinam Grass ([3]; 16 g ai/ha): 0
Plant response rating, Surinam Grass ([3]; 31 g ai/ha): 0
Plant response rating, Surinam Grass ([3]; 62 g ai/ha): 40
Plant response rating, Surinam Grass ([3]; 125 g ai/ha): 85
Plant response rating, Arrowleaf Sida ([4]; 16 g ai/ha): 100
Plant response rating, Arrowleaf Sida ([4]; 31 g ai/ha): 98
Plant response rating, Arrowleaf Sida ([4]; 62 g ai/ha): 100
Plant response rating, Arrowleaf Sida ([4]; 125 g ai/ha): 100
Plant response rating, Barnyardgrass ([5]; 16 g ai/ha): 5
Plant response rating, Barnyardgrass ([5]; 31 g ai/ha): 50
Plant response rating, Barnyardgrass ([5]; 62 g ai/ha): 70
Plant response rating, Barnyardgrass ([5]; 125 g ai/ha): 100
Plant response rating, Dayflower, VA ([6]; 16 g ai/ha): 0
Plant response rating, Dayflower, VA ([6]; 31 g ai/ha): 20
Plant response rating, Dayflower, VA ([6]; 62 g ai/ha): 90
Plant response rating, Dayflower, VA ([6]; 125 g ai/ha): 95
Plant response rating, Panicum, Fall ([7]; 16 g ai/ha): 0
Plant response rating, Panicum, Fall ([7]; 31 g ai/ha): 98
Plant response rating, Panicum, Fall ([7]; 62 g ai/ha): 100
Plant response rating, Panicum, Fall ([7]; 125 g ai/ha): 100
Plant response rating, Field Bindweed ([8]; 16 g ai/ha): 25
Plant response rating, Field Bindweed ([8]; 31 g ai/ha): 20
Plant response rating, Field Bindweed ([8]; 62 g ai/ha): 40
Plant response rating, Field Bindweed ([8]; 125 g ai/ha): 85
Plant response rating, Goosegrass ([9]; 16 g ai/ha): 0
Plant response rating, Goosegrass ([9]; 31 g ai/ha): 50
Plant response rating, Goosegrass ([9]; 62 g ai/ha): 90
Plant response rating, Goosegrass ([9]; 125 g ai/ha): 98
Plant response rating, Foxtail, Green ([10]; 16 g ai/ha): 35
Plant response rating, Foxtail, Green ([10]; 31 g ai/ha): 80
Plant response rating, Foxtail, Green ([10]; 62 g ai/ha): 95
Plant response rating, Foxtail, Green ([10]; 125 g ai/ha): 100
Plant response rating, Beggarticks ([11]; 16 g ai/ha): 0
Plant response rating, Beggarticks ([11]; 31 g ai/ha): 0
Plant response rating, Beggarticks ([11]; 62 g ai/ha): 0
Plant response rating, Beggarticks ([11]; 125 g ai/ha): 0
Plant response rating, Kochia (kochia (Kochia scoparia); 16 g ai/ha): 80
Plant response rating, Kochia (kochia (Kochia scoparia); 31 g ai/ha): 90
Plant response rating, Kochia (kochia (Kochia scoparia); 62 g ai/ha): 100
Plant response rating, Kochia (kochia (Kochia scoparia); 125 g ai/ha): 100
Plant response rating, Lambsquarters ([12]; 16 g ai/ha): 100
Plant response rating, Lambsquarters ([12]; 31 g ai/ha): 100
Plant response rating, Lambsquarters ([12]; 62 g ai/ha): 100
Plant response rating, Lambsquarters ([12]; 125 g ai/ha): 100
Plant response rating, Crabgrass, Large ([13]; 16 g ai/ha): 80
Plant response rating, Crabgrass, Large ([13]; 31 g ai/ha): 98
Plant response rating, Crabgrass, Large ([13]; 62 g ai/ha): 100
Plant response rating, Crabgrass, Large ([13]; 125 g ai/ha): 100
Plant response rating, Morningglory ([14]; 16 g ai/ha): 0
Plant response rating, Morningglory ([14]; 31 g ai/ha): 35
Plant response rating, Morningglory ([14]; 62 g ai/ha): 70
Plant response rating, Morningglory ([14]; 125 g ai/ha): 95
Plant response rating, Nightshade ([15]; 16 g ai/ha): 80
Plant response rating, Nightshade ([15]; 31 g ai/ha): 70
Plant response rating, Nightshade ([15]; 62 g ai/ha): 98
Plant response rating, Nightshade ([15]; 125 g ai/ha): 98
Plant response rating, Pigweed, Palmer ([16]; 16 g ai/ha): 60
Plant response rating, Pigweed, Palmer ([16]; 31 g ai/ha): 70
Plant response rating, Pigweed, Palmer ([16]; 62 g ai/ha): 80
Plant response rating, Pigweed, Palmer ([16]; 125 g ai/ha): 100
Plant response rating, Ragweed ([17]; 16 g ai/ha): 0
Plant response rating, Ragweed ([17]; 31 g ai/ha): 20
Plant response rating, Ragweed ([17]; 62 g ai/ha): 65
Plant response rating, Ragweed ([17]; 125 g ai/ha): 100
Plant response rating, Sandbur ([18]; 16 g ai/ha): 0
Plant response rating, Sandbur ([18]; 31 g ai/ha): 5
Plant response rating, Sandbur ([18]; 62 g ai/ha): 35
Plant response rating, Sandbur ([18]; 125 g ai/ha): 65
Plant response rating, Waterhemp ([19]; 16 g ai/ha): 98
Plant response rating, Waterhemp ([19]; 31 g ai/ha): 100
Plant response rating, Waterhemp ([19]; 62 g ai/ha): 100
Plant response rating, Waterhemp ([19]; 125 g ai/ha): 100
Plant response rating, Nutsedge, Yellow ([20]; 16 g ai/ha): 0
Plant response rating, Nutsedge, Yellow ([20]; 31 g ai/ha): 0
Plant response rating, Nutsedge, Yellow ([20]; 62 g ai/ha): 35
Plant response rating, Nutsedge, Yellow ([20]; 125 g ai/ha): 40

Fc1cccc(Oc2ncc(Cl)cn2)c1Oc1ncc(C(F)(F)F)cn1 [Compound 43, 5-chloro-2-[5-fluoro-6-[[5-(trifluoromethyl)-2-pyrimidinyl]oxy]phenoxy]pyrimidine]
Plant response rating, Crabgrass, Brazil ([1]; 31 g ai/ha): 95
Plant response rating, Crabgrass, Brazil ([1]; 125 g ai/ha): 100
Plant response rating, Ryegrass, Italian ([2]; 31 g ai/ha): 40
Plant response rating, Ryegrass, Italian ([2]; 125 g ai/ha): 98
Plant response rating, Surinam Grass ([3]; 31 g ai/ha): 25
Plant response rating, Surinam Grass ([3]; 125 g ai/ha): 80
Plant response rating, Arrowleaf Sida ([4]; 31 g ai/ha): 100
Plant response rating, Arrowleaf Sida ([4]; 125 g ai/ha): 100
Plant response rating, Barnyardgrass ([5]; 31 g ai/ha): 20
Plant response rating, Barnyardgrass ([5]; 125 g ai/ha): 100
Plant response rating, Dayflower, VA ([6]; 31 g ai/ha): 25
Plant response rating, Dayflower, VA ([6]; 125 g ai/ha): 95
Plant response rating, Panicum, Fall ([7]; 31 g ai/ha): 95
Plant response rating, Panicum, Fall ([7]; 125 g ai/ha): 100
Plant response rating, Field Bindweed ([8]; 31 g ai/ha): 20
Plant response rating, Field Bindweed ([8]; 125 g ai/ha): 50
Plant response rating, Goosegrass ([9]; 31 g ai/ha): 50
Plant response rating, Goosegrass ([9]; 125 g ai/ha): 100
Plant response rating, Foxtail, Green ([10]; 31 g ai/ha): 70
Plant response rating, Foxtail, Green ([10]; 125 g ai/ha): 100
Plant response rating, Beggarticks ([11]; 31 g ai/ha): 0
Plant response rating, Beggarticks ([11]; 125 g ai/ha): 0
Plant response rating, Kochia (kochia (Kochia scoparia); 31 g ai/ha): 98
Plant response rating, Kochia (kochia (Kochia scoparia); 125 g ai/ha): 100
Plant response rating, Lambsquarters ([12]; 31 g ai/ha): 95
Plant response rating, Lambsquarters ([12]; 125 g ai/ha): 100
Plant response rating, Crabgrass, Large ([13]; 31 g ai/ha): 98
Plant response rating, Crabgrass, Large ([13]; 125 g ai/ha): 100
Plant response rating, Morningglory ([14]; 31 g ai/ha): 5
Plant response rating, Morningglory ([14]; 125 g ai/ha): 95
Plant response rating, Nightshade ([15]; 31 g ai/ha): 98
Plant response rating, Nightshade ([15]; 125 g ai/ha): 100
Plant response rating, Pigweed, Palmer ([16]; 31 g ai/ha): 75
Plant response rating, Pigweed, Palmer ([16]; 125 g ai/ha): 90
Plant response rating, Ragweed ([17]; 31 g ai/ha): 60
Plant response rating, Ragweed ([17]; 125 g ai/ha): 85
Plant response rating, Sandbur ([18]; 31 g ai/ha): 15
Plant response rating, Sandbur ([18]; 125 g ai/ha): 100
Plant response rating, Waterhemp ([19]; 31 g ai/ha): 90
Plant response rating, Waterhemp ([19]; 125 g ai/ha): 100
Plant response rating, Nutsedge, Yellow ([20]; 31 g ai/ha): 0
Plant response rating, Nutsedge, Yellow ([20]; 125 g ai/ha): 25
